Structures are written as SMILES.

This is an account of results in patent US9708316B2 (BRISTOL-MYERS SQUIBB COMPANY, priority 2014, dated 2017).

In one assay the target is T1, HIS-TGFβR1 T204D (Homo sapiens, UniProt P36897, T204D).
T1 sequence (P36897 34-503 T204D): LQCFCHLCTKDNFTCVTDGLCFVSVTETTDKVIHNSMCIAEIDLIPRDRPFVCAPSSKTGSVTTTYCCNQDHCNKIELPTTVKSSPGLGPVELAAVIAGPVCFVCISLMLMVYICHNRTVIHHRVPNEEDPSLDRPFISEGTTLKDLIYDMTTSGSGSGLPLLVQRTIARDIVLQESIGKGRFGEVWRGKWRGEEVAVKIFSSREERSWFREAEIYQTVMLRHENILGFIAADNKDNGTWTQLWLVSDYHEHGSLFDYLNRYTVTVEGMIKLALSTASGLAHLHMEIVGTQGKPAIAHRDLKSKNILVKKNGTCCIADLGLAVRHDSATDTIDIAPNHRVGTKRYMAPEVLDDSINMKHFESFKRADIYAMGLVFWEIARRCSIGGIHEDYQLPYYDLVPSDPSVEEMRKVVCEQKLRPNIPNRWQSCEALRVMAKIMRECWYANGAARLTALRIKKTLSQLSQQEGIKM
The assay can be described thus: HTRF probe-displacement assay, HIS-TGFβR1 T204D. The following applies: read-out: TGFβR1 (μM) IC50. It is filed as binding.

The next assay addresses HIS-TGFβR2 WT (Homo sapiens, UniProt P37173). The assay can be described thus: HTRF probe-displacement assay, HIS-TGFβR2 WT. It is filed as binding.

HIS-TGFβR2 WT, sequence (P37173 23-567): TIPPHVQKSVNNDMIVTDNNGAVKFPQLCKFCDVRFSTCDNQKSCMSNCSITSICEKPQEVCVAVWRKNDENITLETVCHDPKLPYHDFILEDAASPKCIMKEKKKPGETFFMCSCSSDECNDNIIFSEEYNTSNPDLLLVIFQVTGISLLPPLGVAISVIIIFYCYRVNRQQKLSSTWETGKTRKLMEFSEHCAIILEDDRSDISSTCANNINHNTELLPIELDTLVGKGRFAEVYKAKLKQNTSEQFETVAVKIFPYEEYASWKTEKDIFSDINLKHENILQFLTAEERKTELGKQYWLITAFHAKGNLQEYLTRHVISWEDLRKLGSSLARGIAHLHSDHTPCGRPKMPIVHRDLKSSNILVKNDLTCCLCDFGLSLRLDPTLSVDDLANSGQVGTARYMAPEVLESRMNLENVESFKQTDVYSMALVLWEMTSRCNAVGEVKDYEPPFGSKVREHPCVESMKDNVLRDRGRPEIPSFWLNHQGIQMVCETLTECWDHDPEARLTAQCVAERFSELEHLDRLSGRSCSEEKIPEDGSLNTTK

For `COc1ccnc2c(-c3ccc(F)cn3)c(-c3ccnc(NC(C)=O)c3)[nH]c12` [Example 268, N-(4-(3-(5-Fluoropyridin-2-yl)-7-methoxy-1H-pyrrolo[3,2-b]pyridin-2-yl)pyridin-2-yl)acetamide], the IC50 on HIS-TGFβR1 T204D was 0.005 µM; at HIS-TGFβR2 WT it was 2.45 µM.
In the same order, the values of `COC(=O)Nc1cc(-c2[nH]c3cccnc3c2-c2ccc(OC)nc2)ccn1` [Example 84, Methyl N-{4-[3-(6-methoxypyridin-3-yl)-1H-pyrrolo[3,2-b]pyridin-2-yl]pyridin-2-yl}carbamate] are 0.002 µM and 0.13 µM.
In the same order, the values of `CC(=O)Nc1cc(-c2[nH]c3c(CN4CCN(C)CC4)ccnc3c2-c2cccc(C(F)F)n2)ccn1` [Example 139, N-(4-{3-[6-(Difluoromethyl)pyridin-2-yl]-7-[(4-methylpiperazin-1-yl)methyl]-1H-pyrrolo[3,2-b]pyridin-2-yl}pyridin-2-yl)acetamide] are 0.001 µM and 8.47 µM.
As for `CC(=O)Nc1cc(-c2[nH]c3cccnc3c2-c2ccn[nH]2)ccn1` [Example 191, N-(4-(3-(1H-Pyrazol-5-yl)-1H-pyrrolo[3,2-b]pyridin-2-yl)pyridin-2-yl)acetamide], the IC50 at HIS-TGFβR1 T204D is 0.0939 µM; at HIS-TGFβR2 WT, 2 µM.
Consider `COc1ccc2[nH]c(-c3ccnc(NC(C)=O)c3)c(-c3cccc(Cl)n3)c2n1` [Example 77], for which the IC50 is 0.033 µM at HIS-TGFβR1 T204D and more than 15 µM at HIS-TGFβR2 WT.
In the same order, the values of `COc1cnc2c(-c3cccc(C(F)F)n3)c(-c3ccnc(NC(=O)CN4CCN(CCO)CC4)c3)[nH]c2c1` [Example 123, N-(4-{3-[6-(Difluoromethyl)pyridin-2-yl]-6-methoxy-1H-pyrrolo[3,2-b]pyridin-2-yl}pyridin-2-yl)-2-[4-(2-hydroxyethyl)piperazin-1-yl]acetamide] are less than 0.001 µM and more than 15 µM.
In the same order, the values of `COc1ccc(-c2c(-c3ccnc(NC(C)=O)c3)[nH]c3cccnc23)nc1C` [Example 237, N-(4-(3-(5-Methoxy-6-methylpyridin-2-yl)-1H-pyrrolo[3,2-b]pyridin-2-yl)pyridin-2-yl)acetamide] are 0.111 µM and more than 15 µM.
In the case of `CC(=O)Nc1cc(-c2[nH]c3cc(Cl)cnc3c2-c2nc(C)cs2)ccn1` [Example 176, N-(4-(6-Chloro-3-(4-methylthiazol-2-yl)-1H-pyrrolo[3,2-b]pyridin-2-yl)pyridin-2-yl)acetamide], the IC50 is 0.0005 µM at HIS-TGFβR1 T204D and 0.037 µM at HIS-TGFβR2 WT.
As to `COc1cnc2c(-c3ncc(C)s3)c(-c3ccnc(NC(C)=O)c3)[nH]c2c1` [Example 209, N-(4-(6-Methoxy-3-(5-methylthiazol-2-yl)-1H-pyrrolo[3,2-b]pyridin-2-yl)pyridin-2-yl)acetamide], the IC50 at HIS-TGFβR1 T204D amounted to 0.0009 µM; at HIS-TGFβR2 WT it was 0.218 µM.
In the case of `CC(=O)Nc1cc(-c2[nH]c3c(CN(C)C)ccnc3c2-c2cccc(C(F)F)n2)ccn1` [Example 141, N-(4-{3-[6-(Difluoromethyl)pyridin-2-yl]-7-[(dimethylamino)methyl]-1H-pyrrolo[3,2-b]pyridin-2-yl}pyridin-2-yl)acetamide], the IC50 stood at 0.003 µM on HIS-TGFβR1 T204D and 27.3 µM on HIS-TGFβR2 WT.
In the same order, the values of `CC(=O)Nc1cc(-c2[nH]c3cc(C)cnc3c2-c2csc(C)n2)ccn1` [Example 186, N-(4-(6-Methyl-3-(2-methylthiazol-4-yl)-1H-pyrrolo[3,2-b]pyridin-2-yl)pyridin-2-yl)acetamide] are 0.0029 µM and 0.821 µM.
Consider `COc1ncc(-c2c(-c3ccnc(NC(C)=O)c3)[nH]c3cccnc23)cn1` [Example 27, N-{4-[3-(2-Methoxypyrimidin-5-yl)-1H-pyrrolo[3,2-b]pyridin-2-yl]pyridin-2-yl}acetamide], for which the IC50 on HIS-TGFβR1 T204D is 0.72 µM; at HIS-TGFβR2 WT, more than 15 µM.
In the same order, the values of `CC(=O)Nc1cc(-c2[nH]c3c(C(C)O)ccnc3c2-c2ccc(F)cn2)ccn1` (stereo not shown) [Example 265, N-(4-(3-(5-Fluoropyridin-2-yl)-7-(1-hydroxyethyl)-1H-pyrrolo[3,2-b]pyridin-2-yl)pyridin-2-yl)acetamide] are 0.004 µM and 1.05 µM.
`COc1cnc2c(-c3ccc(F)cn3)c(-c3ccnc(NC(C)=O)c3)[nH]c2c1` [Example 49, N-{4-[3-(5-Fluoropyridin-2-yl)-6-methoxy-1H-pyrrolo[3,2-b]pyridin-2-yl]pyridin-2-yl}acetamide]: the figures for the IC50 at HIS-TGFβR1 T204D and on HIS-TGFβR2 WT were 0.003 µM and 0.24 µM, respectively.
For `COC(=O)c1cc(Cl)nc2c(-c3ccc(F)cn3)c(-c3ccnc(NC(C)=O)c3)[nH]c12` [Example 69, Methyl 5-chloro-2-(2-acetamidopyridin-4-yl)-3-(5-fluoropyridin-2-yl)-1H-pyrrolo[3,2-b]pyridine-7-carboxylate] the same measures were 0.76 µM and more than 15 µM.
For `C[C@H](O)C(=O)Nc1cc(-c2[nH]c3cc(Cl)cnc3c2-c2ccc(F)cn2)ccn1` [Example 73] the same measures were 0.019 µM and 15.5 µM.
On to `CC(=O)Nc1cc(-c2[nH]c3cccnc3c2-c2ccc(C#N)nc2)ccn1` [Example 12, N-{4-[3-(6-Cyanopyridin-3-yl)-1H-pyrrolo[3,2-b]pyridin-2-yl]pyridin-2-yl}acetamide], for which the values for the IC50 at HIS-TGFβR1 T204D and on HIS-TGFβR2 WT were 0.058 µM and 1.31 µM, respectively.
As to `CNCc1ccnc2c(-c3cccc(C(F)F)n3)c(-c3ccnc(NC(C)=O)c3)[nH]c12` [Example 151, N-(4-{3-[6-(Difluoromethyl)pyridin-2-yl]-7-[(methylamino)methyl]-1H-pyrrolo[3,2-b]pyridin-2-yl}pyridin-2-yl)acetamide], the IC50 on HIS-TGFβR1 T204D was 0.01 µM; on HIS-TGFβR2 WT, more than 15 µM.
`CC(=O)Nc1cc(-c2[nH]c3c(CO)ccnc3c2-c2cccc(Cl)n2)ccn1` [Example 276, N-(4-(3-(6-Chloropyridin-2-yl)-7-(hydroxymethyl)-1H-pyrrolo[3,2-b]pyridin-2-yl)pyridin-2-yl)acetamide]: the IC50 turned out to be 0.001 µM on HIS-TGFβR1 T204D and 0.503 µM at HIS-TGFβR2 WT.
For `COc1ccc(-c2c(-c3ccnc(NC(C)=O)c3)[nH]c3c(C(C)O)ccnc23)cn1` (stereo not shown) [Example 230, N-(4-(7-(1-Hydroxyethyl)-3-(6-methoxypyridin-3-yl)-1H-pyrrolo[3,2-b]pyridin-2-yl)pyridin-2-yl)acetamide] the same measures were 0.0024 µM and 0.037 µM.
On to `CC(=O)Nc1cc(-c2[nH]c3cccnc3c2-c2cccc(Cl)n2)ccn1` [Example 3, N-{4-[3-(6-Chloropyridin-2-yl)-1H-pyrrolo[3,2-b]pyridin-2-yl]pyridin-2-yl}acetamide], for which the IC50 on HIS-TGFβR1 T204D stood at 0.001 µM; on HIS-TGFβR2 WT, 0.089 µM.
For `CCNc1cc(-c2[nH]c3cc(Cl)cnc3c2-c2ccc(OC)cn2)ccn1` [Example 242, 4-(6-Chloro-3-(5-methoxypyridin-2-yl)-1H-pyrrolo[3,2-b]pyridin-2-yl)-N-ethylpyridin-2-amine], the IC50 at HIS-TGFβR1 T204D was 0.033 µM; at HIS-TGFβR2 WT it was not below 15 µM.
Consider `CC(=O)Nc1cc(-c2[nH]c3cc(Cl)cnc3c2-c2cccc(C(C)C)n2)ccn1` [Example 260, N-(4-(6-Chloro-3-(6-isopropylpyridin-2-yl)-1H-pyrrolo[3,2-b]pyridin-2-yl)pyridin-2-yl)acetamide], for which the IC50 on HIS-TGFβR1 T204D is 0.049 µM; on HIS-TGFβR2 WT it was more than 15 µM.
As for `CC(=O)Nc1cc(-c2[nH]c3c(C(C)O)ccnc3c2-c2cccc(C(F)F)n2)ccn1` (stereo not shown) [Example 143, N-(4-{3-[6-(Difluoromethyl)pyridin-2-yl]-7-(1-hydroxyethyl)-1H-pyrrolo[3,2-b]pyridin-2-yl}pyridin-2-yl)acetamide], the values for the IC50 at HIS-TGFβR1 T204D and on HIS-TGFβR2 WT were 0.001 µM and 2.53 µM, respectively.
For the compound `CC(=O)Nc1cc(-c2[nH]c3c(CF)ccnc3c2-c2cccc(C(F)F)n2)ccn1` [Example 150, N-(4-{3-[6-(Difluoromethyl)pyridin-2-yl]-7-(fluoromethyl)-1H-pyrrolo[3,2-b]pyridin-2-yl}-pyridin-2-yl)acetamide], the IC50 worked out at 0.001 µM on HIS-TGFβR1 T204D and 6.08 µM at HIS-TGFβR2 WT.
As to `O=C(CN1CCN(CCO)CC1)Nc1cc(-c2[nH]c3cc(Cl)cnc3c2-c2ccc(F)cn2)ccn1` [Example 246, N-(4-(6-Chloro-3-(5-fluoropyridin-2-yl)-1H-pyrrolo[3,2-b]pyridin-2-yl)pyridin-2-yl)-2-(4-(2-hydroxyethyl)piperazin-1-yl)acetamide], the values for the IC50 at HIS-TGFβR1 T204D and at HIS-TGFβR2 WT were 0.001 µM and 5.99 µM, respectively.
Regarding `CNc1cc(-c2[nH]c3cc(Cl)cnc3c2-c2ccc(F)cn2)ccn1` [Example 82, 4-[6-Chloro-3-(5-fluoropyridin-2-yl)-1H-pyrrolo[3,2-b]pyridin-2-yl]-N-methylpyridin-2-amine], the IC50 on HIS-TGFβR1 T204D turned out to be 0.006 µM; at HIS-TGFβR2 WT, 4.05 µM.
In the same order, the values of `CC(=O)Nc1cc(-c2[nH]c3cccnc3c2-c2nc(C)ccc2F)ccn1` [Example 107, N-(4-(3-(3-Fluoro-6-methylpyridin-2-yl)-1H-pyrrolo[3,2-b]pyridin-2-yl)pyridin-2-yl)acetamide] are 0.001 µM and 8.14 µM.
Take `CNCc1cnc2c(-c3ccc(OC)cn3)c(-c3ccnc(NC(C)=O)c3)[nH]c2c1` [Example 293, N-(4-(3-(5-Methoxypyridin-2-yl)-6-((methylamino)methyl)-1H-pyrrolo[3,2-b]pyridin-2-yl)pyridin-2-yl)acetamide]: the IC50 at HIS-TGFβR1 T204D is 0.016 µM; on HIS-TGFβR2 WT, more than 15 µM.
